# Changes are numbered by the printed parent chain.
# How the values were obtained:
# [1] = test system: LNCaP cells; experiment: Assay on inhibitory activity for LNCaP cell proliferation (CCK-8); format: cell-based; conditions: 168 h incubation
# Summary of the method: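 Cells seeded at 1×10^5 cells/mL in phenol red-free 1640 with 2% CSS-FBS, treated at final 10000 nM-0.61 nM in duplicate. After 168 h incubation, viability read with CCK-8.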
# [2] = In vitro stability in liver microsome; format: in vitro ADME; conditions: human liver microsome 0.5 mg/mL, NADPH, 37° C.
# Description: Liver microsome incubation samples (species: human, monkey, rat, and mouse) were prepared by mixing a PBS buffer (pH=7.4), a liver microsome solution (0.5 mg/mL), a test compound, and an NADPH+MgCl2 solution and incubated at 37° C. and 300 rpm for 1 h. Zero-hour samples were prepared by mixing a PBS buffer (pH=7.4), a liver microsome solution (0.5 mg/mL), and a test compound. An acetonitrile solution containing an internal standard was added to the samples, and supernatants were prepared by protein precipitation, diluted, and then assayed by LC/MS/MS.
# [3] = biological target: T1, AR in VCaP cells (Homo sapiens, UniProt P10275); experiment: Assay on degradation activity for AR in VCaP cells (HTRF human androgen receptor detection kit); format: cell-based; conditions: 24 h incubation
# T1 construct: Assay on Degradation Activity for AR in VCaP Cells; endogenous in cells; host or cells: VCaP cells
# T1 sequence (P10275 1-920): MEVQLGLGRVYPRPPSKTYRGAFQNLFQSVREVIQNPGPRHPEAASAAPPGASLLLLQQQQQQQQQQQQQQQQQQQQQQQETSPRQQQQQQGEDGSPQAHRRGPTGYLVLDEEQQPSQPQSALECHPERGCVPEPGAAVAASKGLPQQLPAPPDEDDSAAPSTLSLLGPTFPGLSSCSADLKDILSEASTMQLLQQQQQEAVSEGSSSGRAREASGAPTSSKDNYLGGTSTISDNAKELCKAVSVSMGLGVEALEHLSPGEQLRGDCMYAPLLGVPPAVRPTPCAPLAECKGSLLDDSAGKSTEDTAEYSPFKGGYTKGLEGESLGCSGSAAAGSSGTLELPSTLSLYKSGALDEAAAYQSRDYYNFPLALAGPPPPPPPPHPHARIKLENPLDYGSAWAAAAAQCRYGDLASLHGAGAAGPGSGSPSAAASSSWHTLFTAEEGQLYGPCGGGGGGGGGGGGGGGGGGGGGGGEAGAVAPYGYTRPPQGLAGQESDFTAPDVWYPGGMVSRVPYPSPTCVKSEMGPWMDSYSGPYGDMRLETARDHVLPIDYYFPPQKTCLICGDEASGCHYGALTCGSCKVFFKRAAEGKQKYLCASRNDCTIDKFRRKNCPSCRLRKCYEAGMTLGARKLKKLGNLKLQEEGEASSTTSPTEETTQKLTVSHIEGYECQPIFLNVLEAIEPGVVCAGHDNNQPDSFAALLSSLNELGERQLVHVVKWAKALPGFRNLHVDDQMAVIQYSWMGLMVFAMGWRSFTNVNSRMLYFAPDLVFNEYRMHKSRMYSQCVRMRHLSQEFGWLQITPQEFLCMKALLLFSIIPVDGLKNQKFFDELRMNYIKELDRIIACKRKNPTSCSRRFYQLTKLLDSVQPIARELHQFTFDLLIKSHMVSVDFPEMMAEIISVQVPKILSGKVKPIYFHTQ
# Description: (§1) The detection was carried out using the HTRF HUMAN ANDROGEN RECEPTOR DETECTION KIT (cisbio, 64ANDRPEG), 4× Supplemented Lysis buffer was prepared using the Blocking reagent stock solution (100×) and Lysis buffer stock solution (4×), and 1× Supplemented Lysis buffer was prepared using the 4× Supplemented Lysis buffer and ddH2O. Premixed antibody solutions were prepared using Detection buffer, Androgen Receptor Eu Cryptate antibody, and Androgen Receptor d2 antibody.
# (§2) VCaP cells in a good growth state were taken, washed with PBS, digested with pancreatin, and added with 2% CSS—FBS phenol red-free DMEM complete medium to terminate the digestion. The cells were collected by using a centrifuge tube, adjusted to a cell density of 1×10^6 cells/mL, and seeded in a 96-well plate (100 µL/well). The cells were incubated overnight in a cell incubator. Compounds were added using a nanoliter pipettor such that the final concentrations of the compounds were 1000 nM-0.977 nM. Two duplicate wells were set for each concentration, and meanwhile, a control was set. After another 24 h of incubation in the cell incubator, the medium was pipetted out, the 1× Supplemented Lysis buffer was added at 40 μL/well to lyse the cells. After the cells were oscillated for 40 min at room temperature, 16 μL of the cell lysate was added to a 384-well plate, the Premixed antibody solutions were added at 4 μL/well, and the mixture was left to stand at 25° C. for 2 h. Fluorescence values were detected at 665 nm/620 nm using an Envision microplate reader, the four-parameter analysis was performed, the dose-response curves were fit, and DC50 (the concentration of the drug when the degradation rate reaches 50%) and Dmax (the maximum degradation rate) were calculated.
# [4] = biological target: T2, AR in LNCaP cells (Homo sapiens, UniProt P10275, T878A); experiment: Assay on degradation activity for AR in LNCaP cells (HTRF human androgen receptor detection kit); format: cell-based; conditions: 24 h incubation; for DC50: HTRF; for Dmax: maximum degradation rate
# T2 construct: Assay on Degradation Activity for AR in LNCaP Cells; endogenous in cells; host or cells: LNCaP cells
# T2 sequence (P10275 1-920 T878A): T1 sequence (P10275 1-920) with T878A
# Description: as §1
# as §2, with “LNCaP” for “VCaP”, “1640” for “DMEM”, “μL/well).” for “µL/well).”, “500 nM-0.488” for “1000 nM-0.977”
# [5] = test system: VCaP cells; experiment: Assay on inhibitory activity for VCaP cell proliferation (CCK-8); format: cell-based; conditions: Homo sapiens, 168 h incubation
# Summary of the method: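 VCaP cells seeded at 1×10^5 cells/mL in phenol red-free DMEM with 5% charcoal-stripped FBS, treated in duplicate at 10000–0.61 nM final. After 168 h incubation, viability was read with CCK-8.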
IC50 [1],Human liver microsome Residuals at 60 min (%) [2],IC50 ([1]; Homo sapiens),"IC50 ([5]; VCaP, 168 h)",SMILES,DC50 [3],DC50 [4],Dmax [4],IC50 [5]
< 1000 nM,>85%,,,"N#Cc1ccc(O[C@H]2CC[C@H](NC(=O)c3ccc(N4CCC5(CC4)CN(C4Cc6ccc7c(C8CCC(=O)NC8=O)noc7c6C4)C5)nn3)CC2)cc1Cl (single isomer, unassigned) [Compound 25]",,,,
,>85%,< 1000 nM,,N#Cc1ccc(O[C@H]2CC[C@H](NC(=O)c3ccc(N4CCC(CN5CC6(Cc7ccc8c(C9CCC(=O)NC9=O)noc8c7C6)C5)CC4)nn3)CC2)cc1Cl (some centres unmarked) [Compound 21],,,,
,,< 1000 nM,< 10 nM,N#Cc1ccc(O[C@H]2CC[C@H](NC(=O)c3ccc(N4CCC(N5CC(CN6CCc7ccc8c(C9CCC(=O)NC9=O)noc8c7C6)C5)CC4)nn3)CC2)cc1Cl (some centres unmarked) [Compound 91],≤ 1 nM,≤ 20 nM,> 80%,
,>85%,< 1000 nM,,"N#Cc1ccc(O[C@H]2CC[C@H](NC(=O)c3ccc(N4CCC5(CC4)CN(C4Cc6ccc7c(C8CCC(=O)NC8=O)noc7c6C4)C5)nn3)CC2)cc1Cl (single isomer, unassigned) [Compound 24]",,,,
,,< 1000 nM,< 10 nM,N#Cc1ccc(O[C@H]2CC[C@H](NC(=O)c3ccc(N4CCC(CN5CC(CN6Cc7cc8onc(C9CCC(=O)NC9=O)c8cc7C6)C5)CC4)nn3)CC2)cc1Cl (some centres unmarked) [Compound 102],≤ 1 nM,≤ 20 nM,> 80%,
,,< 1000 nM,< 10 nM,N#Cc1ccc(O[C@H]2CC[C@H](NC(=O)c3ccc(N4CCN(C5CN(CC6Cc7ccc8c(C9CCC(=O)NC9=O)coc8c7C6)C5)CC4)nn3)CC2)cc1Cl (some centres unmarked) [Compound 107],≤ 1 nM,≤ 20 nM,> 80%,

SMILES,IC50 [1],Human liver microsome Residuals at 60 min (%) [2],IC50 ([1]; Homo sapiens),"IC50 ([5]; VCaP, 168 h)",DC50 [3],DC50 [4],Dmax [4],IC50 [5]
CN(c1ccc(C#N)c(Cl)c1)[C@H]1CC[C@H](NC(=O)c2cnc(N3CCC(CN4CCc5c(ccc6c(C7CCC(=O)NC7=O)noc56)C4)CC3)nc2)CC1 (some centres unmarked) [Compound 117],,,< 1000 nM,,≤ 1 nM,≤ 20 nM,> 80%,< 100 nM
N#Cc1ccc(O[C@H]2CC[C@H](NC(=O)c3ccc(N4CCC5(CC4)CC(CN4CCc6c(ccc7c(C8CCC(=O)NC8=O)noc67)C4)C5)nn3)CC2)cc1Cl (some centres unmarked) [Compound 36],,,< 1000 nM,,≤ 1 nM,≤ 20 nM,> 80%,< 10 nM
N#Cc1ccc(O[C@H]2CC[C@H](NC(=O)c3ccc(N4CCC5(CC4)CC(CN4CCc6ccc7c(C8CCC(=O)NC8=O)noc7c6CC4)C5)nn3)CC2)cc1Cl (some centres unmarked) [Compound 37],,,< 1000 nM,,≤ 1 nM,≤ 20 nM,> 80%,< 100 nM
CN(c1ccc(C#N)c(Cl)c1)[C@H]1CC[C@H](NC(=O)c2ccc(N3CCC(CN4CCc5c(ccc6c(C7CCC(=O)NC7=O)noc56)C4)CC3)nn2)CC1 (some centres unmarked) [Compound 118],,,< 1000 nM,,≤ 1 nM,≤ 20 nM,> 80%,< 100 nM

# — patent publication US20260035384A1, “COMPOUND CONTAINING CYCLOHEXYL” (CHIA TAI TIANQING PHARMACEUTICAL GROUP CO., LTD., priority 2022, published 2026)
